The values below are quoted from earlier work in patent publication US20030060503A1, “Nutritional supplements for mature pets” (Juvenon, Inc., priority 2000, published 2003).

Like-named read-outs stand apart in the source and are kept apart here.

One data set relates to aged rats. Conditions: supplementation.
Data set [1] relates to carnitine-acetyl-carnitine exchange across the inner mitochondrial membrane.
Data set [2] has as its system programmed cell death, or apoptosis. Conditions: through its action in the mitochondria.
The conditions of data set [3]: daily supplements of up to 200 mg for 6-12 months and 100 mg daily for up to 6 y.
The subject of another data set is oxidant production. Conditions: carnitine supplementation.
The subject of another data set is skeletal muscle. The following applies: older individuals (40-73), 20 g/day, one week.

For `O=C(O)CCCC[C@@H]1CCSS1` [R-α-lipoic acid], the ambulatory activity entry in the data set on aged rats (aged rats) is given as “triple the ambulatory activity of aged rats”. Moreover, in the data set on aged rats, the “age-related increase in oxidants” value is recorded as “significantly lower the age-related increase in oxidants”; the “glutathione and ascorbic acid levels” value was “restore glutathione and ascorbic acid levels to youthful levels”; the mitochondrial membrane potential entry is on record as “restore the age-related decline in mitochondrial membrane potential”; the oxygen consumption result is recorded as “reverse the age-related decrease in oxygen consumption”.

For the compound acyl-L-carnitine, the “age-related decrease of carnitine-acetyl-carnitine exchange activity” value in data set [1] is “slow or reverse this age-related dysfunction”.

Regarding `COC1=C(OC)C(=O)C(C/C=C(\C)CC/C=C(\C)CC/C=C(\C)CC/C=C(\C)CC/C=C(\C)CC/C=C(\C)CC/C=C(\C)CC/C=C(\C)CC/C=C(\C)CCC=C(C)C)=C(C)C1=O` [Q10, coenzyme Q10], the “programmed cell death (apoptosis)” value in [2] is “appears to block programmed cell death”. Further, the adverse effects result in [3] is “No important adverse effects”. Also, the “recovery of function in older hearts” value in the data set with senescent myocardium is reported as “corrected the age-specific diminished recovery of function in older hearts”. Besides, the “tolerance of senescent myocardium to aerobic and ischemic stress” value in the data set on senescent myocardium (human atrial tissue and rats) is “improves the tolerance of the senescent myocardium to aerobic and ischemic stress”.

`C[N+](C)(C)CC(O)CC(=O)[O-]` (centres unmarked) [carnitine]: in the data set with oxidant production, the cell antioxidants entry is “decreased cell antioxidants markedly” and the “increase in oxidant production” value was 30%.

Take `COc1c(O)c(C)c(C/C=C(\C)CC/C=C(\C)CC/C=C(\C)CC/C=C(\C)CC/C=C(\C)CC/C=C(\C)CC/C=C(\C)CC/C=C(\C)CC/C=C(\C)CCC=C(C)C)c(O)c1OC` [ubiquinol-10]: in the data set with human lymphocytes, the “oxidative damage to DNA” value was “appears to protect human lymphocytes from oxidative damage to DNA”.

As for `CN(CC(=O)O)C(=N)N` [creatine], in the data set with skeletal muscle, the “skeletal muscle strength and endurance” value is “increased skeletal muscle strength and endurance”. The safety result (1.5 g-25 g/day for at least a year) is reported as “safe”. Further, the adverse effects entry (athletes, doses up to 75 grams a day for years) is “without known adverse effects, aside from weight gain”.

With `C[N+](C)(C)C[C@H](O)CC(=O)[O-]` [L-carnitine], in data set [1], the “age-related decrease of carnitine-acetyl-carnitine exchange activity” value was “slow or reverse this age-related dysfunction”.
